This note sets out measurements from patent US9944647B2 (Incyte Corporation, priority 2015, dated 2018).

For the assay, the target named is LSD-1 enzyme (Homo sapiens (Human), UniProt O60341). Put plainly: LANCE LSD1/KDM1A demethylase assay (LSD1 histone demethylase biochemical assay). Conditions: 1 nM LSD-1 enzyme, 1 hour preincubation at 25° C., Biotin-labeled Histone H3 peptide substrate. On the technique in general: In TR-FRET formats the signal depends on donor and acceptor labels being close together.
The term IC50 denotes the midpoint of a concentration-inhibition curve. A higher IC50 goes with weaker potency in that assay. `Cc1cc(-c2c(-c3ccc(C#N)cc3)nc(N3CC[C@@H](N(C)C)C3)n3ccnc23)cc(F)c1CO` [Example 110, 4-{5-[(3R)-3-(dimethylamino)pyrrolidin-1-yl]-8-[3-fluoro-4-(hydroxymethyl)-5-methylphenyl]imidazo[1,2-c]pyrimidin-7-yl}benzonitrile] had an IC50 of at most 50 nM.

Turning to `CN(C)C1CCN(c2nc(-c3ccc(C#N)cc3)c(-c3cnc4c(c3)oc(=O)n4C)c3nccn23)CC1` [Example 60, 4-[5-[4-(dimethylamino)piperidin-1-yl]-8-(3-methyl-2-oxo-2,3-dihydro[1,3]oxazolo[4,5-b]pyridin-6-yl)imidazo[1,2-c]pyrimidin-7-yl]benzonitrile], the IC50 was at most 50 nM.

Turning to `CN(C)C1CCN(c2nc(-c3ccc(C#N)cc3)c(-c3cc4c(cc3F)n(C)c(=O)n4C)c3nccn23)CC1` [Example 129, 4-[5-[4-(dimethylamino)piperidin-1-yl]-8-(6-fluoro-1,3-dimethyl-2-oxo-2,3-dihydro-1H-benzimidazol-5-yl)imidazo[1,2-c]pyrimidin-7-yl]benzonitrile], the IC50 was at most 50 nM.

`CN1CC[C@@H](COc2nc(-c3ccc(C#N)cc3)c(-c3ccc4c(c3)CC(=O)N4C)c3nccn23)C1` [Example 23, 4-(8-(1-methyl-2-oxo-2,3-dihydro-1H-indol-5-yl)-5-{[(3R)-1-methylpyrrolidin-3-yl]methoxy}imidazo[1,2-c]pyrimidin-7-yl)benzonitrile] displayed an IC50 of 50 to 500 nM.

As to `Cn1c(=O)oc2cc(-c3c(-c4ccc(C#N)cc4)nc(OC[C@@H]4CCCN(CCC#N)C4)n4ccnc34)ccc21` [Example 83, 4-[5-{[(3R)-1-(2-cyanoethyl)piperidin-3-yl]methoxy}-8-(3-methyl-2-oxo-2,3-dihydro-1,3-benzoxazol-6-yl)imidazo[1,2-c]pyrimidin-7-yl]benzonitrile], the concentration for half-maximal inhibition (IC50) is at most 50 nM.
